Measured values as given in patent US20060024661A1, “Modulation of CRF potentiation of NMDA receptor currents via CRF receptor 2” (The Regents of the University of California, priority 2003, published 2006).
Entries after “also recorded” stand apart in the source; their conditions may differ. Where no end group is shown, it is not given here.

Columns and labels:
CRF-BP = biological target: T1, CRF-BP (Homo sapiens, UniProt P24387); conditions: in words; cited from earlier work
T1 sequence (P24387 25-322): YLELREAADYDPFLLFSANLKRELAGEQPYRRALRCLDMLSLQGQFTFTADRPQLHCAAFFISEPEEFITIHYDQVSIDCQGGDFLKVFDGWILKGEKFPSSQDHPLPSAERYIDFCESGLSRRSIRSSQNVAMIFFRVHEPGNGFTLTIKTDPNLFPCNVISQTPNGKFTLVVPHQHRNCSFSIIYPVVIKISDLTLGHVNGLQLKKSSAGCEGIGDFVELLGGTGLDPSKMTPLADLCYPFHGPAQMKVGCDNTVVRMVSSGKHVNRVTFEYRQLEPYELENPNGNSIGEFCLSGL

CRF-R1 = biological target: T2, CRF-R1 (Homo sapiens, UniProt P34998); conditions: in words; cited from earlier work
T2 sequence (P34998 24-415): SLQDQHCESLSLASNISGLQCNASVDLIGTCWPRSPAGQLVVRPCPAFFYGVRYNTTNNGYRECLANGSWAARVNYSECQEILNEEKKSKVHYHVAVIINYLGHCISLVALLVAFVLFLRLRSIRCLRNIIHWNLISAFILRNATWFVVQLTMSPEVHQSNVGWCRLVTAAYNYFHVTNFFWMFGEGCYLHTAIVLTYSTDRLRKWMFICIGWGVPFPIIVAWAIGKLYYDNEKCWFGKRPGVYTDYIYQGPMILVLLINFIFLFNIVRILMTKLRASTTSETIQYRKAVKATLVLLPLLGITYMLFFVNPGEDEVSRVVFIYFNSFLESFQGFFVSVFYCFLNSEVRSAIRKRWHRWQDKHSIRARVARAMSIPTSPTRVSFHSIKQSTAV

[1] = system: NMDAR-mediated EPSCs in VTA dopamine neurons; experiment: NMDAR-mediated EPSCs, whole-cell voltage-clamp in VTA slices; assay type: cell-based, mice; conditions: for potentiation of NMDAR-mediated EPSCs: +40 mV
Protocol: VTA slices from 21-29 day old C57 mice (Charles River) were prepared as previously described (Ungless et al. (2001). Nature 411: 584-587). Briefly, mice were anesthetized with halothane and then decapitated. A block of tissue containing midbrain was sliced in the horizontal plane (230 μm) in ice-cold low Ca^2+ solution (containing in mM: 126 NaCl, 1.6 KCl, 1.2 NaH2PO4, 1.2 MgCl2, 0.625 CaCl2, 18 NaHCO3 and 11 glucose). Slices were transferred to a holding chamber containing artificial cerebrospinal fluid (ACSF, in mM: 126 NaCl, 1.6 KCl, 1.2 NaH2PO4, 1.2 MgCl2, 2.5 CaCl2, 18 NaHCO3 and 11 glucose) and equilibrated at 31-34° C. for at least 1 h. Picrotoxin (100 μM) was added to the ACSF for recording, to block GABAA receptor-mediated inhibitory postsynaptic potentials. All solutions were aerated with 95% O2/5% CO2, and perfused over the slice at a rate of 2.5 ml/min. Cells were visualized with an upright microscope using infrared differential interference contrast (IR-DIC) illumination and whole-cell voltage-clamp recordings were made with an Axopatch 1D amplifier (Axon Instruments). Electrodes (2-4 MΩ) contained in mM: 117 cesium methansulfonic acid, 20 HEPES, 0.4 EGTA, 2.8 NaCl, 5 TEA-Cl, 2.5 MgATP, 0.25 MgGTP, pH 7.2-7.4, 275-285 mOsm. Dopamine cells were identified by the presence of an Ih current. A bipolar stimulating electrode was placed 100-300 μm rostral to the recording electrode and was used to stimulate excitatory afferents at 0.1 Hz. Neurons were voltage-clamped at +40 mV. Coronal hippocampal slices were also prepared and maintained in a similar manner. Extracellular field potentials were recorded in the CA1 region and evoked by stimulating the stratum radiatum. All drugs were obtained from Sigma, except human/rat CRF (Tocris), Antisauvagine-30 (PolyPeptide) and CP-154,526 (a generous gift from Pfizer). CRF fragment (6-33), ovine CRF, Antisauvagine-30, CP-154,526, U-73122 and Urocortin were first dissolved in DMSO (final concentration 0.1%). EPSCs were filtered at 2 kHz, digitized at 5-10 kHz and stored using Igor Pro software (Wavemetrics). AMPAR-mediated EPSCs were recorded at −70 mV; NMDAR-mediated EPSCs were recorded at +40 mV and measured 20 msec after the stimulation artifact when the EPSC is primarily NMDAR-mediated (11,13). Statistical significance was assessed using ANOVA on 5 min bins of EPSCs, and post hoc Fisher's LSD where appropriate.
We measured excitatory postsynaptic currents (EPSCs) recorded in putative dopamine neurons in midbrain slices from mice. EPSCs were evoked while holding neurons in voltage-clamp at +40 mV; measurements were taken at a time point when the EPSC is purely NMDA-receptor-mediated (see Methods) (Bonci and Malenka (1999). J Neurosci. 19: 3723-3730; Ungless et al. (2001). Nature 411: 584-587). […] To facilitate our subsequent investigation of the effects of CRF, we therefore sought to identify a characteristic that might help us determine, a priori, to which group a particular neuron belongs. […] We noticed that, typically, neurons that responded to CRF had large Ih currents (FIG. 1B). […] Henceforth, all subsequent experiments were conducted on cells with an Ih greater than 100 pA.

[2] = system: AMPAR-mediated EPSCs in VTA dopamine neurons; experiment: AMPAR-mediated EPSCs, whole-cell voltage-clamp in VTA slices; assay type: cell-based, mice; conditions: CRF 1 μM; voltage-clamp at -70 mV; n=4
Protocol: VTA slices from 21-29 day old C57 mice (Charles River) were prepared as previously described (Ungless et al. (2001). Nature 411: 584-587). Briefly, mice were anesthetized with halothane and then decapitated. A block of tissue containing midbrain was sliced in the horizontal plane (230 μm) in ice-cold low Ca^2+ solution (containing in mM: 126 NaCl, 1.6 KCl, 1.2 NaH2PO4, 1.2 MgCl2, 0.625 CaCl2, 18 NaHCO3 and 11 glucose). Slices were transferred to a holding chamber containing artificial cerebrospinal fluid (ACSF, in mM: 126 NaCl, 1.6 KCl, 1.2 NaH2PO4, 1.2 MgCl2, 2.5 CaCl2, 18 NaHCO3 and 11 glucose) and equilibrated at 31-34° C. for at least 1 h. Picrotoxin (100 μM) was added to the ACSF for recording, to block GABAA receptor-mediated inhibitory postsynaptic potentials. All solutions were aerated with 95% O2/5% CO2, and perfused over the slice at a rate of 2.5 ml/min. […] Extracellular field potentials were recorded in the CA1 region and evoked by stimulating the stratum radiatum. […] AMPAR-mediated EPSCs were recorded at −70 mV; NMDAR-mediated EPSCs were recorded at +40 mV and measured 20 msec after the stimulation artifact when the EPSC is primarily NMDAR-mediated (11,13). Statistical significance was assessed using ANOVA on 5 min bins of EPSCs, and post hoc Fisher's LSD where appropriate. […]

cAMP in Ltk- cells = conditions: CRF 1 μM; Lovenberg et al. 1995; cited from earlier work
[3] = system: field potentials in hippocampus CA1 (CRF-R1 mediated); experiment: Extracellular field potentials in hippocampal slices (CA1); assay type: cell-based, mice
Text: A bipolar stimulating electrode was placed 100-300 μm rostral to the recording electrode and was used to stimulate excitatory afferents at 0.1 Hz.

NMDARs = conditions: derived from cell lines; Patneau and Mayer 1990; cited from earlier work
[4] = peptide bath applied 1 μM for 8 min, large Ih (CRF-responding) dopamine neurons
[5] = peptide 1 μM for 8 min, small Ih (non-responding) dopamine neurons

## Urocortin II: CRF-like peptide binding selectively to CRF-R2 (IVLSLDVPIGLLQILLEQARARAAREQATTNARILARVGHC; ends and bridges not checked; UniProt Q96RP3 72-112, looked up)
CRF-BP
  affinity for CRF-BP: low affinity
CRF-R1
  affinity for CRF-R1: low affinity
[1]; [4]
  potentiation of NMDAR-mediated EPSCs: no potentiation; also recorded: does not potentiate

## CRF fragment (6-33): CRF fragment that competes with CRF at the CRF-BP; CRF-BP inhibitor (ISLDLTFHLLREVLEMARAEQLAQQAHS; Corticoliberin; UniProt P06850 159-186, looked up, fragment)
CRF-BP
  affinity for CRF-BP: high-affinity binding
[1]; CRF fragment (6-33) 1 μM for 10 min co-applied with CRF, n=5
  block of CRF-induced potentiation of NMDAR-mediated EPSCs: did not potentiate; also recorded: inhibits

## CRF: Corticotrophin-releasing factor, a 41 amino acid peptide; human/rat CRF (Tocris) (SEEPPISLDLTFHLLREVLEMARAEQLAQQAHSNRKLMEII)
[2]
  potentiation of AMPAR-mediated EPSCs: did not potentiate; also recorded: does not potentiate
cAMP in Ltk- cells
  activation of cAMP: maximal activation
[3]; CRF 1 μM, 15 mins after CRF onset, n=4, P<0.05
  hippocampal field potential vs. baseline: 143.0±7.7%
[1]; CRF 100 nM, 25 mins after CRF onset, n=6, P<0.05
  NMDAR-mediated EPSC size vs. baseline: 128.01±15.7%
[1]; [5]
  potentiation of NMDAR-mediated EPSCs: did not observe any effect; also recorded: do not exhibit CRF-induced potentiation
[1]; [4]
  potentiation of NMDAR-mediated EPSCs: large, slowly developing, and transient potentiation; also recorded: exhibit CRF-induced potentiation

## N[C@@H](CCC(=O)O)C(=O)O [glutamate]
NMDARs
  EC50: ~1000 nM

## COc1ccc2c(c1)CC[C@@H]1[C@@H]2CC[C@]2(C)[C@@H](NCCCCCCN3C(=O)C=CC3=O)CC[C@@H]12 [U-73122]
[1]; U-73122 1 μM for 10 min before and during CRF application, n=5
  block of CRF-induced potentiation of NMDAR-mediated EPSCs: no potentiation
[1]; U-73122 1 μM for 10 min before and during CRF application, n=5, listed as U73122
  block of CRF-induced potentiation of NMDAR-mediated EPSCs: is blocked

## Nc1ncnc2c1ncn2[C@@H]1O[C@@H]2CO[P@@](O)(=S)O[C@H]2[C@H]1O [Rp-cAMPs]
[1]; Rp-cAMPs 100 μM in patch pipette, CRF 1 μM, n=4
  block of CRF-induced potentiation of NMDAR-mediated EPSCs: still observed a significant potentiation; also recorded: is not blocked

## Antisauvagine-30
[1]; Antisauvagine-30 30 nM, CRF 1 μM, 15 mins after CRF onset, n=3, P>0.05
  NMDAR-mediated EPSC size vs. baseline with CRF in presence of antagonist: 113.9±17.7%
[1]; Antisauvagine-30 1M for 15 min (so in the source), CRF 1 μM, n=5
  block of CRF-induced potentiation of NMDAR-mediated EPSCs: inhibited; also recorded: blocks

## ovine CRF: differs from human/rat CRF by 7 amino acids; binds CRF-R2, much lower affinity for CRF-BP
CRF-BP
  affinity for CRF-BP: much lower affinity
[1]; [4]
  potentiation of NMDAR-mediated EPSCs: no potentiation
[1]; peptide bath applied 1 μM for 8 min, large Ih (CRF-responding) dopamine neurons, listed as bovine CRF
  potentiation of NMDAR-mediated EPSCs: does not induce potentiation

## CCCCN(CC)c1nc(C)nc2c1c(C)cn2-c1c(C)cc(C)cc1C [CP-154,526]
[3]; CRF 1 μM plus 3 μM CP-154,526, n=5, P>0.05
  hippocampal field potential vs. baseline with CRF plus antagonist: 82.9±6.9%
[1]; CP-154,526 3 μM for 15 min, CRF 1 μM, n=6
  block of CRF-induced potentiation of NMDAR-mediated EPSCs: failed to block; also recorded: does not block

## Urocortin: CRF-like peptide, possible endogenous CRF-R2 ligand, also binds CRF-BP (DNPSLSIDLTFHLLRTLLELARTQSQRERAEQNRIIFDSV; ends and bridges not checked; UniProt P55089 83-122, looked up)
CRF-BP
  affinity for CRF-BP: higher affinity than CRF
CRF-R1
  affinity for CRF-R1: slightly lower affinity than CRF-R2
[1]; [5]
  potentiation of NMDAR-mediated EPSCs: not
[1]; [4]
  potentiation of NMDAR-mediated EPSCs: potentiation; also recorded: potentiates
